{"source": "patent US12509734B2", "about": "“Systems and methods to assess microbiomes and treatments thereof” (priority 2013, dated 2025)", "key": {"[1]": {"test_system": "bacterial vaginosis (BV)", "assay": "Clinical assessment of BV patients after therapy (Amsel criteria, Nugent score, recurrence)", "format": "in vivo, human", "from_the_text": "Patients. Five African American participants were followed at the Vaginitis Clinic at Wayne State University and had been treated for recurrent episodes symptomatic bouts of BV. Patients were enrolled after protocol explanation and written informed consent was obtained. The study was endorsed by the Human Investigational Review Board of Wayne State University. At the time of enrollment, patients were diagnosed with florid symptomatic acute BV, characterized by the presence of at least 3 of the 4 Amsel criteria (homogeneous vaginal discharge, pH elevated above 4.5, clue cells>20%, positive whiff test) and Nugent scores of at least 8.\nAt this immediate PT visit, patients were given Catch-All Sample Collection Swabs (Epicentre Biotechnologies, Madison, WI) and 15 mL conical tubes for vaginal specimen self-collection. […] Samples from a previously characterized group of recurrent BV patients, sampled before and after treatment, were also evaluated by Lb-qPCR. Reichman et al., Sexually Transmitted Diseases 36: 732-734, 2009."}, "[2]": {"test_system": "vaginal microbiota (PB-primer target groups)", "assay": "PB-qPCR of acute BV and post-tinidazole vaginal lavages (Tables 3A, 3B)", "format": "in vivo, human", "conditions": "for Post-Tinidazole PB-qPCR Cells/sample: post-tinidazole vaginal lavage", "protocol": "DNA extraction. Bacteria were lysed from vaginal lavages by adding sodium hydroxide and sodium dodecyl sulfate to final concentrations of 133 mM and 10% respectively, followed by vigorous reciprocal shaking at room temperature for 30 m. This lysate was then extracted with phenol:chloroform:isoamyl alcohol (25:24:1) then chloroform. The DNA was precipitated with an equal volume of 100% isopropanol, washed once with 70% isopropanol, and dissolved in 100 μl TE (10 mM Tris pH 8, 1 mM EDTA). DNA was stored at −20° C. until further use. […] DNA was amplified from extracts of reference bacterial species as single colonies, using QUICKEXTRACT™ Plant DNA 144 Extraction Solution (Epicentre, Madison, WI), modified by heating at 65° C. for 30 m, 95° C. for 1 m.\nPCR primers, blockers, and amplification. Standard PCR was performed on ROBOCYCLER™ Gradient 96 (Stratagene). Real-time PCR was performed using Cepheid SMARTCYCLER™ or LIGHTCYCLER® 480 II (Roche Applied Sciences) thermal cyclers. The reaction utilized individually optimized amounts of each primer, 250 μM dNTPs (Invitrogen), 20 mM Tris pH 8.3, 3 mM MgCl2, 50 mM KCl, and Taq DNA polymerase, 5 units from either GeneChoice or New England Biolabs, 2.5 units GenScript Green Taq, or 1 unit of glycerol-free Taq DNA polymerase from APEX (Genesee Scientific) per 100 μl reaction volume, including either 0.073×SYBR® Green I Nucleic Acid Stain (FMC Bio Products) or 0.25 μl of 15 μM SYTO9 (Invitrogen) for qPCR reactions.\nCalculation of titers and percent compositions. Cp values from reactions in LIGHTCYCLER® 480 II Real-Time PCR System (Roche Applied Science) were converted to molecules by comparison to Cp values of a standard curve from the same run derived from four to eight 10-fold serial dilutions of an amplicon quantified using the QUANT-IT® assay (Invitrogen). Molecules per μl were converted to cells per 5 ml lavage, assuming an average of five ribosomal genes per cell and proportioned to the ratio of the volume of the lavage used in the DNA prep and its final volume.\nIf the titer of the sample was below the limit of detection for the PB assay, nested PCR on a 24-cycle amplicon from a longer broad-spectrum 16S amplicon was performed (Tables 3A-3D). If the nested PCR was negative, the titer of the original sample was assumed to be 0; if the nested PCR was positive, the titer was reported as below the concentration of most dilute but still positive sample in each specific run. Amplicons were sequenced to verify that targeted species were amplified. Mixed amplicons were cloned into pGEM-T™ easy (Promega) and approximately 10 of the resultant clones sequenced. Percentages were calculated by dividing the titer from each PB by the sum of the titers from all the PB primers.\nFor Tables 3A-3D, titers were determined by qPCR using standard curves and converted to approximate cells/sample as described herein. Primers BU4&BU6 were used alone for the 16S-C&S but the extended set (Table 1) was used for qPCR. Species were identified by Sanger sequencing of either uncloned amplicons, in cases where a single species was dominant for the target group, or by sequencing small numbers of E. coli clones derived from the amplicons if mixed. In silico performance was determined using the RDP website; Target hits is the number of database entries of “good” quality >1200 bp within the target grouping; Total hits is the total number of these hits in the RDP database; Specificity=target/total hits; Total target number=number of RDP entries in the target group; Target coverage=target hits/target number. Notes: uc=uncultured; n.d.=none detected; n.a.=not applicable; t=no subuniversal primer; *=detected by nested PCR only, reporting limit of detection; [ ]=identity; ˜=novel species, closest hit listed. […] 1 min and ended with 72° C. 5 min; ***=excludes ˜⅓ of Clostridium XI; **** performance not determined, showing forward primer only. […]"}}}
{"smiles": "CCS(=O)(=O)CCn1c([N+](=O)[O-])cnc1C", "note": "[tinidazole]", "values": [{"measurement": "Clinical status after treatment", "setting": "[1]; BV patient (Nugent 10 at acute phase), 500 mg twice a day for 10 days", "value": "full remission"}, {"measurement": "Amine test after therapy", "setting": "[1]; P4, 500 mg bid for 7 days", "value": "negative"}, {"measurement": "Clinical status one week after completing therapy", "setting": "[1]; P4, 500 mg bid for 7 days", "value": "entirely asymptomatic"}, {"measurement": "Vaginal pH after therapy", "setting": "[1]; P4, 500 mg bid for 7 days", "value": 4.2}, {"measurement": "Recurrence of BV", "setting": "[1]; P4, followed for a month", "value": "did not recur"}, {"measurement": "Outcome at return within three weeks by Amsel criteria", "setting": "[1]; five recurrent BV patients, Nugent scores of 0 except Patient 5", "value": "clinical cure"}, {"measurement": "Composition of post-tinidazole sample", "setting": "[2]; PB-qPCR, FIG. 5B", "value": "dominated by L. iners"}, {"measurement": "Fold higher G. vaginalis in the BV sample compared to post-tinidazole", "setting": "[2]; one patient, vaginal lavages", "value": "approximately 10^4 fold"}, {"measurement": "Fold lower titer of L. iners in the acute BV sample compared to post-tinidazole", "setting": "[2]; one patient, vaginal lavages", "value": "approximately 20 fold"}, {"measurement": "Post-Tinidazole PB-qPCR Cells/sample", "setting": "[2]; target Actinobacteridae", "value": "5.7E+04", "unit": "Cells/sample"}, {"measurement": "Post-Tinidazole PB-qPCR Cells/sample", "setting": "[2]; target Bacteroidaceae/uc Prevotellaceae", "value": "4.7E+06", "unit": "Cells/sample"}, {"measurement": "Post-Tinidazole PB-qPCR Cells/sample", "setting": "[2]; target Beta-Proteobacteria", "value": "2.6E+04", "unit": "Cells/sample"}, {"measurement": "Post-Tinidazole PB-qPCR Cells/sample", "setting": "[2]; target Broad-spectrum (BU4L/BU6R)", "value": "1.4E+10", "unit": "Cells/sample"}, {"measurement": "Post-Tinidazole PB-qPCR Cells/sample", "setting": "[2]; target Clostridiales Incertae Sedis XI", "value": 0, "unit": "Cells/sample"}, {"measurement": "Post-Tinidazole PB-qPCR Cells/sample", "setting": "[2]; target Clostridiales Incertae Sedis XII", "value": "5.5E+03", "unit": "Cells/sample"}, {"measurement": "Post-Tinidazole PB-qPCR Cells/sample", "setting": "[2]; target Coriobacteridae", "value": "4.0E+04", "unit": "Cells/sample"}, {"measurement": "Post-Tinidazole PB-qPCR Cells/sample", "setting": "[2]; target Cross-family Clostridia", "value": "3.9E+03", "unit": "Cells/sample"}, {"measurement": "Post-Tinidazole PB-qPCR Cells/sample", "setting": "[2]; target Enterobacteriales, Pasteurellales, Pseudomonadaceae", "value": "2.9E+03", "unit": "Cells/sample"}, {"measurement": "Post-Tinidazole PB-qPCR Cells/sample", "setting": "[2]; target Fusobacterium", "value": "2.9E+02", "unit": "Cells/sample"}, {"measurement": "Post-Tinidazole PB-qPCR Cells/sample", "setting": "[2]; target Lachnospiracea uc & incertae sedis, Clostridium IVa, Roseburia", "value": "2.8E+05", "unit": "Cells/sample"}, {"measurement": "Post-Tinidazole PB-qPCR Cells/sample", "setting": "[2]; target Lactobacillaceae", "value": "8.4E+09", "unit": "Cells/sample"}, {"measurement": "Post-Tinidazole PB-qPCR Cells/sample", "setting": "[2]; target Megasphaera/Dialister/Veillonella", "value": "1.8E+03", "unit": "Cells/sample"}, {"measurement": "Post-Tinidazole PB-qPCR Cells/sample", "setting": "[2]; target Mobiluncus", "value": 0, "unit": "Cells/sample"}, {"measurement": "Post-Tinidazole PB-qPCR Cells/sample", "setting": "[2]; target Mycoplasmatales", "value": "8.3E+04", "unit": "Cells/sample"}, {"measurement": "Post-Tinidazole PB-qPCR Cells/sample", "setting": "[2]; target Peptostreptococcaceae", "value": 0, "unit": "Cells/sample"}, {"measurement": "Post-Tinidazole PB-qPCR Cells/sample", "setting": "[2]; target Staphylococcus", "value": "1.0E+05", "unit": "Cells/sample"}, {"measurement": "Post-Tinidazole PB-qPCR Cells/sample", "setting": "[2]; target Streptococcus", "value": "8.1E+05", "unit": "Cells/sample"}, {"measurement": "Post-Tinidazole PB-qPCR Cells/sample", "setting": "[2]; target uc Clostridiales (BVAB2&3 subset)", "value": 0, "unit": "Cells/sample"}]}
